Data as given in BindingDB's records for doi:10.1021/acs.jmedchem.6b01194 (University of Illinois At Chicago, 2016).
pEC50: −log10 of the molar value.

Biological target: 5-hydroxytryptamine receptor 2B (Homo sapiens, UniProt P41595)
Assay: Agonist activity at human 5-HT2B receptor expressed in human Flp-In-293 cells assessed as induction of calcium flux incubated for 1 hr by Fluo-4 direct dye based FLIPR assay

Sequence of 5-hydroxytryptamine receptor 2B (P41595 whole entry): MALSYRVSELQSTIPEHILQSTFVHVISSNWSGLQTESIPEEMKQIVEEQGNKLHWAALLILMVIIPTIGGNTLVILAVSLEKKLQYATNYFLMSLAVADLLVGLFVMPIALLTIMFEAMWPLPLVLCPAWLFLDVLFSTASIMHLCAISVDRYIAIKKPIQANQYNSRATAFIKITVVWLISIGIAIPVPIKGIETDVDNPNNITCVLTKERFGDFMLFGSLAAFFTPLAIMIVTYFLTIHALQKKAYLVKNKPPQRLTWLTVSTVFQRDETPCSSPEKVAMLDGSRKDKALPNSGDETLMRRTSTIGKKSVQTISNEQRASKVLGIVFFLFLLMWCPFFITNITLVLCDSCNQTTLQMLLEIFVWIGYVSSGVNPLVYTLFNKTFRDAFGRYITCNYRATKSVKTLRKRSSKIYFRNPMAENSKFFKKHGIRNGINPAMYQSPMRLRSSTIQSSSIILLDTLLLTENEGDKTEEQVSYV

Q: How did the pEC50 turn out when `NC[C@H]1C[C@@H]1c1c(OCC2CC2)ccc2occc12` was run?
A: The pEC50 was 6.47.
